How the values were obtained:
[1] = molecular target: T1, Adenosine receptor A3 (Homo sapiens, UniProt P0DMS8); format: cell membranes, CHO-K1, Membrane; settings: cho-k1;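 further: radioligand binding assay with AB-MECA serving as the labeled ligand; in other assays of this panel Not Active means under 50% inhibition at 10 µM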
T1 sequence (P0DMS8 whole entry): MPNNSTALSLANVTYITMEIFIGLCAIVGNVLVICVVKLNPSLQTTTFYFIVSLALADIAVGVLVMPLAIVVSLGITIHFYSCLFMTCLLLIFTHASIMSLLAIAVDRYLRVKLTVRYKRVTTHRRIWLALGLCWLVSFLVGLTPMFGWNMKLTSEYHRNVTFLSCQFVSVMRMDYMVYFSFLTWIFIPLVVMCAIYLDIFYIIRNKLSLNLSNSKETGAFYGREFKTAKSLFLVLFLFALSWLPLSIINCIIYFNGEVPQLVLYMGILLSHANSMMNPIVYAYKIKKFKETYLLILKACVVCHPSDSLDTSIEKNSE

[2] = molecular target: D(1A) dopamine receptor (Homo sapiens, UniProt P21728); test: DRUGMATRIX: Dopamine D1 radioligand binding (ligand: [3H] SCH-23390); format: cell membranes, CHO, Membrane; settings: cho; Not Active = under 50% inhibition at 10 µM
Sequence of D(1A) dopamine receptor (P21728 whole entry): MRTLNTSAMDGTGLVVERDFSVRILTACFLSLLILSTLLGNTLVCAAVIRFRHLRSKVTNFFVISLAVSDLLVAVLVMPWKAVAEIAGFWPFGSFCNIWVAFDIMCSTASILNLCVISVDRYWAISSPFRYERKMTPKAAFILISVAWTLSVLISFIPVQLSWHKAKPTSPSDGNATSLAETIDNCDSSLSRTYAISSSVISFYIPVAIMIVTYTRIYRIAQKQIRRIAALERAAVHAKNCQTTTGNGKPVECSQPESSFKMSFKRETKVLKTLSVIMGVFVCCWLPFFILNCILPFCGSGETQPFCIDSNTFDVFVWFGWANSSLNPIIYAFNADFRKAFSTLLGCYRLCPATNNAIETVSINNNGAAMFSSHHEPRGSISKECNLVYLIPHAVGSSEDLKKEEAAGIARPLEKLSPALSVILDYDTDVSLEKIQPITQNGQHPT

[3] = molecular target: Matrix metalloproteinase-9 (Homo sapiens, UniProt P14780); format: cell-based;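 further: inhibition of isolated MMP-9 enzyme activity toward a synthetic peptide substrate, from the DrugMatrix protease screening panel; in other assays of this panel Not Active means under 50% inhibition at 10 µM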
Sequence of Matrix metalloproteinase-9 (P14780 whole entry): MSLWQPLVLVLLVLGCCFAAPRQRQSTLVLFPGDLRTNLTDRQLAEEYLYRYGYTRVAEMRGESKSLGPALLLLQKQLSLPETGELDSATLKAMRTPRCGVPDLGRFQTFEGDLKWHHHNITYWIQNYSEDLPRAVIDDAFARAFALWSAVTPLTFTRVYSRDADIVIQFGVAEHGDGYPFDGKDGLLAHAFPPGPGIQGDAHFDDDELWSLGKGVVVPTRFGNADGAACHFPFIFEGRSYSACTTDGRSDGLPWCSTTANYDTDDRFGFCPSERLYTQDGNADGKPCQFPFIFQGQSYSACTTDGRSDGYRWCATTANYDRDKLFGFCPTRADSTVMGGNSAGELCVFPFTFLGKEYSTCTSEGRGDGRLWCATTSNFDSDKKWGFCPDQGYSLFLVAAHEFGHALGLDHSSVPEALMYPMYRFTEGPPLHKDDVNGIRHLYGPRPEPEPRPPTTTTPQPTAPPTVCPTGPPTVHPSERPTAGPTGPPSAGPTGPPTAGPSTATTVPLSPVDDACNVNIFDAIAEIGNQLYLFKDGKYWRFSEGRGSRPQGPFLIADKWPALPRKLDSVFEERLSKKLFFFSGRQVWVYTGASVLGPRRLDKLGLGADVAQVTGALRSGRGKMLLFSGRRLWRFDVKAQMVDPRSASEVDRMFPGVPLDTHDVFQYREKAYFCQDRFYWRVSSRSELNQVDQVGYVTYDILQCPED

[4] = DRUGMATRIX: Calcium Channel Type L, Dihydropyridine radioligand binding (ligand: [3H] Nitrendipine); format: cell membranes, Rattus norvegicus, Wistar, Cerebral cortex, Membrane; settings: Not Active = under 50% inhibition at 10 µM
[5] = molecular target: T2, 5-hydroxytryptamine receptor 2C (Homo sapiens, UniProt P28335); test: DRUGMATRIX: Serotonin (5-Hydroxytryptamine) 5-HT2C radioligand binding (ligand: [3H] Mesulergine); format: cell membranes, CHO-K1, Membrane; settings: Not Active = under 50% inhibition at 10 µM
T2 sequence (P28335 whole entry): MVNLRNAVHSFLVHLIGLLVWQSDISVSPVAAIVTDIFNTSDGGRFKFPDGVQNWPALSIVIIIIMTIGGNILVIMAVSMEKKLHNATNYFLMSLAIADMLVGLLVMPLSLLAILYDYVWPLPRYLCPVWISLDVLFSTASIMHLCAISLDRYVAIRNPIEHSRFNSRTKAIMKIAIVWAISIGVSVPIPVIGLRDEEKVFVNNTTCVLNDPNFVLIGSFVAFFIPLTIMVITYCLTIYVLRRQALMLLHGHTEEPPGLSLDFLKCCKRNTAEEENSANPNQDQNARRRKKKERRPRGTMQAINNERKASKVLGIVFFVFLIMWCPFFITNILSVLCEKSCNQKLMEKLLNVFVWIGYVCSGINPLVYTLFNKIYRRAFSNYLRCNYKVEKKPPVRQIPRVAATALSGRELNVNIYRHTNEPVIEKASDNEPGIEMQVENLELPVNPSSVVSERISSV

[6] = molecular target: T3, Angiotensin-converting enzyme (Oryctolagus cuniculus, UniProt P12822); format: tissue-based, Lung;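 further: enzymatic inhibition of angiotensin-converting enzyme measured with FAPGG as the substrate; in other assays of this panel Not Active means under 50% inhibition at 10 µM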
T3 sequence (P12822 whole entry): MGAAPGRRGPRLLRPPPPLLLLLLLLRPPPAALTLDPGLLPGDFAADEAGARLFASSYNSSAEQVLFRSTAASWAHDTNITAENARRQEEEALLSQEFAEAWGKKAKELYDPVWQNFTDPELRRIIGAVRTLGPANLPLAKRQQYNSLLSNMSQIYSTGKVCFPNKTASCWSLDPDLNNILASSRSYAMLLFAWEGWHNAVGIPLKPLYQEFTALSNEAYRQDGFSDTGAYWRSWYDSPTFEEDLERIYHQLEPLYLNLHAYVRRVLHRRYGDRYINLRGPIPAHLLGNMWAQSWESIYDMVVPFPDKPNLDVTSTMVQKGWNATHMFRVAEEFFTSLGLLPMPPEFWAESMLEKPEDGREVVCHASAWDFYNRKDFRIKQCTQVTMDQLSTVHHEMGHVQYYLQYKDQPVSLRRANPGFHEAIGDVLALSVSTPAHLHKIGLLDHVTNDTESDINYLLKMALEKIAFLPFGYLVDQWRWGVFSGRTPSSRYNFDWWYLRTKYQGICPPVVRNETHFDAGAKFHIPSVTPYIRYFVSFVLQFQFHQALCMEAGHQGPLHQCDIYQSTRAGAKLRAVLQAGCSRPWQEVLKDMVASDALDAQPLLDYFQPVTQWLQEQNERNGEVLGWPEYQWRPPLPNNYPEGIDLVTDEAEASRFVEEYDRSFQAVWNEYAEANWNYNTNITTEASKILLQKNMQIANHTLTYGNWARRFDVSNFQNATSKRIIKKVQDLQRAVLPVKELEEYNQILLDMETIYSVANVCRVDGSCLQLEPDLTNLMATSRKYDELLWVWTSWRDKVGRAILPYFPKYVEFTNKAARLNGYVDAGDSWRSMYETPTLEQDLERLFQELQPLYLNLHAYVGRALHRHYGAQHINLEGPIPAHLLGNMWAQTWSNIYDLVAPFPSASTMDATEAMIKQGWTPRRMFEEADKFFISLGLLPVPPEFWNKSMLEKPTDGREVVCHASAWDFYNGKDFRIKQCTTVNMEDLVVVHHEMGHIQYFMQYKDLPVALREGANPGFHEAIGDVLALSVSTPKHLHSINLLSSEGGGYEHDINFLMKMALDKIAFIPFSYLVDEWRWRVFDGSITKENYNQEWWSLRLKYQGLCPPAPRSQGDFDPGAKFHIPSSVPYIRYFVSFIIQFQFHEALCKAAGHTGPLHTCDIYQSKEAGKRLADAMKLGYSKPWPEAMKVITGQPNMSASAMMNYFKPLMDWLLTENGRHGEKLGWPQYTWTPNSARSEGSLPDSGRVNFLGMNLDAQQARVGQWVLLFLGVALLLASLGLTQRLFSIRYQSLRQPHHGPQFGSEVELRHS

Row | Compound | IC50 [1] | IC50 [2] | IC50 [3] | IC50 [4] | Ki [4] | IC50 ([5]; cho-k1) | IC50 [6] | IC50 ([5]; read-out: IC50) [µM] | Ki ([5]; read-out: Ki) [µM] | Ki [1] | Ki [2] | Ki [3] | Ki ([5]; cho-k1) | Ki [6]
1 | C[C@@H]1C/C=C/C=C/C=C/C=C/[C@H](O[C@@H]2O[C@H](C)[C@@H](O)[C@H](N)[C@@H]2O)C[C@@H]2O[C@](O)(C[C@@H](O)C[C@H]3O[C@@H]3/C=C/C(=O)O1)C[C@H](O)[C@H]2C(=O)O [NATAMYCIN] | Not Active | Not Active | Not Active | Not Active | Not Active | Not Active | Not Active | – | – | – | – | – | – | –
2 | CN(C)C(=O)Oc1cccc([N+](C)(C)C)c1.[Br-] [NEOSTIGMINE BROMIDE] | Not Active | Not Active | Not Active | Not Active | Not Active | Not Active | Not Active | – | – | – | – | – | – | –
3 | NC(=O)c1cccnc1 [NIACINAMIDE] | Not Active | Not Active | Not Active | Not Active | Not Active | Not Active | Not Active | – | – | – | – | – | – | –
4 | CS(=O)(=O)Nc1ccc([N+](=O)[O-])cc1Oc1ccccc1 [NIMESULIDE] | Not Active | Not Active | Not Active | Not Active | Not Active | Not Active | Not Active | – | – | – | – | – | – | –
5 | CN1C(=O)CN=C(c2ccccc2)c2cc([N+](=O)[O-])ccc21 [NIMETAZEPAM] | Not Active | Not Active | Not Active | Not Active | Not Active | Not Active | Not Active | – | – | – | – | – | – | –
6 | COc1ccc2c(c1OC)C(=O)O[C@@H]2[C@H]1c2c(cc3c(c2OC)OCO3)CCN1C [NOSCAPINE] | Not Active | Not Active | Not Active | Not Active | Not Active | Not Active | Not Active | – | – | – | – | – | – | –
7 | C[C@@H]1O[C@@H](O[C@H]2C[C@@H](O)[C@]3(CO)[C@H]4[C@H](O)C[C@]5(C)[C@@H](C6=CC(=O)OC6)CC[C@]5(O)[C@@H]4CC[C@]3(O)C2)[C@H](O)[C@H](O)[C@H]1O [OUABAIN] | Not Active | Not Active | Not Active | Not Active | Not Active | Not Active | Not Active | – | – | – | – | – | – | –
8 | NC(=O)N1c2ccccc2CC(=O)c2ccccc21 [OXCARBAZEPINE] | Not Active | Not Active | Not Active | Not Active | Not Active | Not Active | Not Active | – | – | – | – | – | – | –
9 | COc1ccnc(C[S+]([O-])c2nc3ccc(OC(F)F)cc3[nH]2)c1OC (stereo unspecified) [PANTOPRAZOLE] | Not Active | Not Active | Not Active | Not Active | Not Active | Not Active | Not Active | – | – | – | – | – | – | –
10 | N=C(N)c1ccc(OCCCCCOc2ccc(C(=N)N)cc2)cc1 [PENTAMIDINE] | Not Active | Not Active | Not Active | Not Active | Not Active | – | Not Active | 3.28 | 1.72 | – | – | – | – | –
11 | NNCCc1ccccc1 [PHENELZINE] | Not Active | Not Active | Not Active | Not Active | Not Active | Not Active | Not Active | – | – | – | – | – | – | –
12 | CCc1ccc(CCOc2ccc(CC3SC(=O)NC3=O)cc2)nc1 (stereo unspecified) [PIOGLITAZONE] | Not Active | Not Active | Not Active | Not Active | Not Active | Not Active | Not Active | – | – | – | – | – | – | –
13 | CCCNC(C)C(=O)Nc1ccccc1C (stereo unspecified) [PRILOCAINE] | Not Active | Not Active | Not Active | Not Active | Not Active | Not Active | Not Active | – | – | – | – | – | – | –
14 | CCN(CC)CCNC(=O)c1ccc(N)cc1 [PROCAINAMIDE] | Not Active | Not Active | Not Active | Not Active | Not Active | Not Active | Not Active | – | – | – | – | – | – | –
15 | CCN(CC)CCCC(C)Nc1c2ccc(Cl)cc2nc2ccc(OC)cc12 (stereo unspecified) [QUINACRINE] | Not Active | Not Active | Not Active | Not Active | Not Active | Not Active | Not Active | – | – | – | – | – | – | –
16 | C[C@]12C=CC(=O)C=C1CC[C@H]1[C@@H]3C[C@@H](O)[C@](O)(C(=O)CO)[C@@]3(C)C[C@H](O)[C@@]12F [TRIAMCINOLONE] | Not Active | Not Active | Not Active | Not Active | Not Active | Not Active | Not Active | – | – | – | – | – | – | –
17 | CC[C@]1(O)C[C@@H]2CN(CCc3c([nH]c4ccccc34)[C@@](C(=O)OC)(c3cc4c(cc3OC)N(C)[C@H]3[C@@](O)(C(N)=O)[C@H](O)[C@]5(CC)C=CCN6CC[C@]43[C@@H]65)C2)C1 [VINDESINE] | Not Active | Not Active | Not Active | Not Active | Not Active | Not Active | Not Active | – | – | – | – | – | – | –
18 | CCN(C(C)=O)c1cccc(-c2ccnc3c(C#N)cnn23)c1 [ZALEPLON] | Not Active | Not Active | Not Active | Not Active | Not Active | Not Active | Not Active | – | – | – | – | – | – | –
19 | COBALTOUS CHLORIDE | Not Active | Not Active | Not Active | Not Active | Not Active | Not Active | Not Active | – | – | Not Active | Not Active | Not Active | Not Active | Not Active
20 | COLISTIN | Not Active | Not Active | Not Active | Not Active | Not Active | Not Active | Not Active | – | – | Not Active | Not Active | Not Active | Not Active | Not Active
